In EPA's ToxRefDB 2:

Tests used:
rat [1] = conditions: Multigenerational reproductive toxicity study, sprague dawley, Oral, Feed, dose end: 2 generation
rat [2] = conditions: Multigenerational reproductive toxicity study, sprague dawley, Oral, Gavage/Intubation, dose end: 2 generation
rat [3] = conditions: Prenatal developmental toxicity study, wistar, Oral, Gavage/Intubation, dose end: 19 GD
rat [4] = conditions: Subchronic oral toxicity in rodents, sprague dawley, Feed, dose end: 13 week, group: systemic, systemic / in life observation / body weight / body weight + systemic / in life observation / body weight / body weight gain + systemic / in…
dog = conditions: Chronic toxicity; beagle; Oral; Feed; dose end: 24 month; group: systemic; systemic / in life observation / body weight / body weight gain + systemic / in life observation / food consumption / food efficiency + …
mouse [5] = conditions: Carcinogenicity; cd1; Oral; [Not Specified]; dose end: 18 month; group: systemic; systemic / in life observation / body weight / body weight + systemic / in life observation / body weight / body weight gain
rat [6] = conditions: Combined chronic toxicity/carcinogenicity, sprague dawley, Oral, Feed, dose end: 24 month, group: systemic
rabbit = conditions: Prenatal developmental toxicity study, new zealand white, Oral, Gavage/Intubation, dose end: 19 GD
rat [7] = conditions: Subchronic oral toxicity in rodents, wistar, Feed, dose end: 90 day, group: systemic, systemic / clinical chemistry / urea nitrogen / urea + systemic / hematology / blood clotting / blood clotting - clotting time + systemic / …
rat [8] = conditions: Subchronic oral toxicity in rodents, other, Feed, dose end: 90 day, group: systemic
rat [9] = conditions: Developmental neurotoxicity study; sprague dawley; Oral; [Not Specified]; dose end: 87 PND; group: cannot be grouped; systemic / in life observation / clinical signs / abnormal posture
rat [10] = conditions: Developmental neurotoxicity study, sprague dawley, Oral, Feed, dose end: 72 PND, group: cannot be grouped
rat [11] = conditions: Multigenerational reproductive toxicity study, sprague dawley, Oral, Feed, dose end: 3 generation
mouse [12] = conditions: Combined chronic toxicity/carcinogenicity; b6c3f1; Oral; Feed; dose end: 107 week; group: systemic; systemic / pathology microscopic / liver / hepatocyte, multinucleate
mouse [13] = conditions: Developmental neurotoxicity study; other; Oral; Feed; dose end: 77 PND; group: cannot be grouped; systemic / pathology microscopic / brain / [other] + systemic / pathology microscopic / brain / depletion
mouse [14] = conditions: Carcinogenicity; b6c3f1; Oral; Feed; dose end: 80 week; group: systemic; systemic / pathology microscopic / liver / hepatocellular carcinoma + systemic / in life observation / clinical signs / alopecia + systemic…
rat [15] = conditions: Carcinogenicity, other, Oral, Feed, dose end: 80 week, group: systemic
rat [16] = conditions: Developmental neurotoxicity study; sprague dawley; Oral; Gavage/Intubation; dose end: 91 PND; group: cannot be grouped; systemic / in life observation / body weight / offspring (pup) weight
mouse [17] = conditions: Subchronic oral toxicity in rodents, b6c3f1, Feed, dose end: 14 week
rat [18] = conditions: Subchronic oral toxicity in rodents, fischer, Feed, dose end: 14 week, group: systemic, systemic / organ weight / liver / absolute + systemic / organ weight / liver / relative to body weight + systemic / hematology / platelet / …
mouse [19] = conditions: Carcinogenicity; b6c3f1; Oral; Feed; dose end: 105 week; group: systemic; systemic / pathology microscopic / liver / eosinophilic focus + systemic / pathology microscopic / liver / hypertrophy + systemic / …
rat [20] = conditions: Carcinogenicity; fischer; Oral; Feed; dose end: 104 week; group: systemic; systemic / pathology microscopic / liver / hypertrophy + systemic / pathology microscopic / liver / vacuolization cytoplasmic + systemic / …
[21] = group: parental, systemic / in life observation / body weight / body weight
[22] = group: reproductive, reproductive / reproductive performance / gestational length / gestational length
[23] = group: offspring, developmental / offspring survival late / lactation index / lactation index + developmental / offspring survival late / viability index / …
[24] = group: parental, systemic / in life observation / clinical signs / salivation + systemic / in life observation / body weight / body weight gain + systemic / …
[25] = group: reproductive, reproductive / offspring survival early / litter size / litter size
[26] = group: developmental, developmental / developmental malformation / bone / incomplete ossification
[27] = group: developmental, developmental / developmental malformation / bone / incomplete ossification + systemic / in life observation / body weight / fetal weight
[28] = group: maternal, systemic / in life observation / mortality / mortality + reproductive / offspring survival early / dead fetuses / dead fetuses
[29] = group: maternal, systemic / in life observation / mortality / mortality + reproductive / reproductive performance / postimplantation loss / postimplantation …
[30] = systemic / in life observation / body weight / body weight + systemic / in life observation / body weight / body weight gain + systemic / in…
[31] = group: developmental, systemic / in life observation / body weight / fetal weight
[32] = group: maternal, systemic / in life observation / mortality / mortality + reproductive / reproductive performance / aborted / aborted + systemic / in life …
[33] = systemic / in life observation / food consumption / food consumption
[34] = systemic / in life observation / food consumption / food consumption + systemic / in life observation / body weight / body weight
[35] = group: offspring, developmental / developmental landmark / vaginal opening / vaginal opening + systemic / in life observation / body weight / offspring (pup) …
[36] = group: parental, systemic / in life observation / body weight / body weight + systemic / in life observation / body weight / body weight gain + systemic / …
[37] = group: reproductive, reproductive / reproductive performance / implantations / implantations + reproductive / offspring survival early / litter size / litter …
[38] = systemic / in life observation / body weight / body weight + systemic / in life observation / clinical signs / fur (altered appearance) + …
[39] = systemic / in life observation / clinical signs / fur (altered appearance) + systemic / in life observation / clinical signs / palpable mass…
[40] = group: maternal, reproductive / reproductive performance / estrous cycle / length
[41] = group: systemic, systemic / in life observation / clinical signs / ataxia + systemic / in life observation / clinical signs / lethargy + systemic / in life …

CCCOC(=O)NCCCN(C)C.Cl [Propamocarb hydrochloride]
LOAEL (rat [1]; group: offspring, systemic / in life observation / body weight / offspring (pup) weight): 485 mg/kg/day | NOAEL (rat [1]; group: offspring, systemic / in life observation / body weight / offspring (pup) weight + systemic / organ weight / brain / relative to body weight + systemic…): 75.4 mg/kg/day | LEL (rat [1]; group: offspring, systemic / organ weight / brain / absolute): 85.3 mg/kg/day | NEL (rat [1]; group: offspring, systemic / organ weight / brain / absolute + systemic / in life observation / body weight / offspring (pup) weight + systemic / organ weight…): 14.2 mg/kg/day | LEL (rat [1]; [21]): 407 mg/kg/day | LOAEL (rat [1]; [21]): 407 mg/kg/day | NEL (rat [1]; [21]): 65.4 mg/kg/day | NOAEL (rat [1]; [21]): 65.4 mg/kg/day | LEL (rat [1]; [22]): 467 mg/kg/day | LOAEL (rat [1]; [22]): > 467 mg/kg/day | NEL (rat [1]; [22]): 76.8 mg/kg/day | NOAEL (rat [1]; [22]): ≥ 467 mg/kg/day | LEL (rat [2]; [23]): 1000 mg/kg/day | LOAEL (rat [2]; [23]): 1000 mg/kg/day | NEL (rat [2]; [23]): 200 mg/kg/day | NOAEL (rat [2]; [23]): 200 mg/kg/day | LEL (rat [2]; [24]): 200 mg/kg/day | LOAEL (rat [2]; [24]): 1000 mg/kg/day | NEL (rat [2]; [24]): 50 mg/kg/day | NOAEL (rat [2]; [24]): 200 mg/kg/day | LEL (rat [2]; [25]): 1000 mg/kg/day | LOAEL (rat [2]; [25]): 1000 mg/kg/day | NEL (rat [2]; [25]): 200 mg/kg/day | NOAEL (rat [2]; [25]): 200 mg/kg/day | LEL (rat [3]; [26]): 740 mg/kg/day | LOAEL (rat [3]; [26]): 740 mg/kg/day | NEL (rat [3]; [27]): 221 mg/kg/day | NOAEL (rat [3]; [27]): 221 mg/kg/day | LEL (rat [3]; [28]): 740 mg/kg/day | LOAEL (rat [3]; [28]): 740 mg/kg/day | NEL (rat [3]; [29]): 221 mg/kg/day | NOAEL (rat [3]; [29]): 221 mg/kg/day | LEL (rat [4]): 716 mg/kg/day | LOAEL (rat [4]): 716 mg/kg/day | NEL (rat [4]): 363 mg/kg/day | NOAEL (rat [4]): 363 mg/kg/day | LEL (dog): 22.8 mg/kg/day | LOAEL (dog): 22.8 mg/kg/day | NEL (dog): < 22.8 mg/kg/day | NOAEL (dog): < 22.8 mg/kg/day | LEL (mouse [5]): 95 mg/kg/day | LOAEL (mouse [5]): 95 mg/kg/day | NEL (mouse [5]): 12 mg/kg/day | NOAEL (mouse [5]): 12 mg/kg/day | LEL (rat [6]; [30]): 682 mg/kg/day | LOAEL (rat [6]; [30]): 682 mg/kg/day | NOAEL (rat [6]; [30]): 84 mg/kg/day | NEL (rat [6]; systemic / pathology microscopic / brain / vacuolization): 84 mg/kg/day

NC(=O)c1c(Cl)cccc1Cl [2,6-Dichlorobenzamide]
LEL (rabbit; [31]): 90 mg/kg/day | LOAEL (rabbit; [31]): 90 mg/kg/day | NEL (rabbit; [31]): 30 mg/kg/day | NOAEL (rabbit; [31]): 30 mg/kg/day | LOAEL (rabbit; group: maternal, systemic / in life observation / mortality / mortality): 30 mg/kg/day | NEL (rabbit; [32]): 10 mg/kg/day | NOAEL (rabbit; [32]): 10 mg/kg/day | LEL (rabbit; group: maternal, systemic / in life observation / mortality / mortality + systemic / in life observation / clinical signs / moribundity): 30 mg/kg/day | LEL (rat [7]): 49 mg/kg/day | LOAEL (rat [7]): 49 mg/kg/day | NEL (rat [7]): 14 mg/kg/day | NOAEL (rat [7]): 14 mg/kg/day

CC(C)(c1ccc(O)cc1)c1ccc(O)cc1 [Bisphenol A]
LEL (rat [8]; [33]): 5 mg/kg/day | NEL (rat [8]; [33]): < 5 mg/kg/day | LOAEL (rat [8]; [34]): > 25 mg/kg/day | NOAEL (rat [8]; [34]): ≥ 25 mg/kg/day | LEL (rat [9]): 0.04 mg/kg/day | LOAEL (rat [9]): > 0.4 mg/kg/day | NEL (rat [9]): < 0.04 mg/kg/day | NOAEL (rat [9]): ≥ 0.4 mg/kg/day | LOAEL (rat [10]; systemic / in life observation / body weight / body weight + systemic / in life observation / body weight / body weight gain): 56.4 mg/kg/day | LEL (rat [10]; [30]): 56.4 mg/kg/day | NEL (rat [10]; [30]): 5.85 mg/kg/day | NOAEL (rat [10]; [30]): 5.85 mg/kg/day | LEL (rat [11]; [35]): 500 mg/kg/day | LOAEL (rat [11]; [35]): > 500 mg/kg/day | NEL (rat [11]; [35]): 50 mg/kg/day | NOAEL (rat [11]; [35]): ≥ 500 mg/kg/day | LEL (rat [11]; group: parental, systemic / in life observation / body weight / body weight + systemic / in life observation / body weight / body weight gain): 50 mg/kg/day | LOAEL (rat [11]; [36]): > 500 mg/kg/day | NEL (rat [11]; [36]): 5 mg/kg/day | NOAEL (rat [11]; [36]): ≥ 500 mg/kg/day | NEL (rat [11]; group: reproductive, reproductive / reproductive performance / implantations / implantations): 50 mg/kg/day | LEL (rat [11]; [37]): 500 mg/kg/day | LOAEL (rat [11]; [37]): > 500 mg/kg/day | NOAEL (rat [11]; [37]): ≥ 500 mg/kg/day | LEL (mouse [12]): 150 mg/kg/day | LOAEL (mouse [12]): > 750 mg/kg/day | NEL (mouse [12]): < 150 mg/kg/day | NOAEL (mouse [12]): ≥ 750 mg/kg/day | LEL (mouse [13]): 0.03 mg/kg/day | LOAEL (mouse [13]): > 2000 mg/kg/day | NEL (mouse [13]): < 0.03 mg/kg/day | NOAEL (mouse [13]): ≥ 2000 mg/kg/day

ClC1=C(Cl)[C@]2(Cl)C3C(Cl)C(Cl)CC3[C@@]1(Cl)C2(Cl)Cl (some centres undefined) [Chlordane]
LEL (mouse [14]): 4.49 mg/kg/day | LOAEL (mouse [14]): > 8.43 mg/kg/day | NEL (mouse [14]): < 4.49 mg/kg/day | NOAEL (mouse [14]): ≥ 8.43 mg/kg/day | LOAEL (rat [15]; [38]): > 12.1 mg/kg/day | NOAEL (rat [15]; [38]): ≥ 12.1 mg/kg/day | LEL (rat [15]; [39]): 6.04 mg/kg/day | NEL (rat [15]; [39]): < 6.04 mg/kg/day

CCC1(c2ccccc2)C(=O)NCNC1=O [Primidone]
LEL (rat [16]): 40 mg/kg/day | LOAEL (rat [16]): > 80 mg/kg/day | NEL (rat [16]): < 40 mg/kg/day | NOAEL (rat [16]): ≥ 80 mg/kg/day | LEL (mouse [17]; [40]): 220 mg/kg/day | LOAEL (mouse [17]; [40]): > 1100 mg/kg/day | NEL (mouse [17]; [40]): 120 mg/kg/day | NOAEL (mouse [17]; [40]): ≥ 1100 mg/kg/day | LOAEL (mouse [17]; [41]): > 1000 mg/kg/day | NEL (mouse [17]; [41]): 50 mg/kg/day | NOAEL (mouse [17]; [41]): ≥ 1000 mg/kg/day | LEL (mouse [17]; group: systemic, systemic / organ weight / liver / absolute + systemic / organ weight / liver / relative to body weight + systemic / pathology microscopic / …): 100 mg/kg/day | LEL (rat [18]): 20 mg/kg/day | LOAEL (rat [18]): > 400 mg/kg/day | NEL (rat [18]): < 20 mg/kg/day | NOAEL (rat [18]): ≥ 400 mg/kg/day | LEL (mouse [19]): 25 mg/kg/day | LOAEL (mouse [19]): 25 mg/kg/day | NEL (mouse [19]): < 25 mg/kg/day | NOAEL (mouse [19]): < 25 mg/kg/day | LEL (rat [20]): 25 mg/kg/day | LOAEL (rat [20]): 25 mg/kg/day | NEL (rat [20]): < 25 mg/kg/day | NOAEL (rat [20]): < 25 mg/kg/day
